From patent publication US20220151962A1, “NOVEL INHIBITORS OF HISTONE DEACETYLASE 10” (Deutsches Krebsforschungszentrum, priority 2019, published 2022) come the findings set out here.

The target in one assay is T1, HDAC3/NcoR2 complex (Homo sapiens, UniProt O15379).
T1 construct: purchased BPS Bioscience 50003
The assay can be described thus: HDAC-Glo I/II assay, HDAC3/NcoR2 complex. The format is biochemical. As to conditions: recombinant human HDAC3/NcoR2 complex; for IC50: read-out: pIC50 HDAC3 Glo (converted).

Another assay concerns the target T2, HDAC8 (Homo sapiens, UniProt Q9BY41).
T2 sequence (Q9BY41 1-377): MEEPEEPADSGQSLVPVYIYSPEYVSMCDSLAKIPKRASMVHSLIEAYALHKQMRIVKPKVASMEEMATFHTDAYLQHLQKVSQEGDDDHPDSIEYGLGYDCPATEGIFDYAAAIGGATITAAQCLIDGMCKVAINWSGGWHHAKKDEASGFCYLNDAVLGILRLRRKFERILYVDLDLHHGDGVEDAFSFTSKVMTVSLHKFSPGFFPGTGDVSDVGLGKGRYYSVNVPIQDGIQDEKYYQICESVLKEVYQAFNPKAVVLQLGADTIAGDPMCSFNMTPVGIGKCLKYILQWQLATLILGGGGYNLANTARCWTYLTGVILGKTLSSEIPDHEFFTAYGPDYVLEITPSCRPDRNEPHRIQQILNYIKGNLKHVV
Kind of assay: HDAC-Glo I/II assay, HDAC8. Type of assay: biochemical. Also on record: purchased BPS Bioscience 50008. Conditions: recombinant human HDAC8, HDAC-Glo; for IC50: read-out: pIC50 HDAC8 Glo (converted).

For a further assay, the target named is T3, HDAC1 (Homo sapiens, UniProt Q13547).
T3 construct: purchased BPS Bioscience 50051
The assay can be described thus: HDAC-Glo I/II assay, HDAC1. Conditions: recombinant human HDAC1, HDAC-Glo; for IC50: read-out: pIC50 HDAC1 Glo (converted). Type of assay: biochemical.

Another assay concerns the target T4, HDAC2 (Homo sapiens, UniProt Q92769).
T4 construct: purchased BPS Bioscience 50002
Kind of assay: HDAC-Glo I/II assay, HDAC2. Conditions: recombinant human HDAC2, HDAC-Glo; for IC50: read-out: pIC50 HDAC2 Glo (converted). Type of assay: biochemical.

A further assay addresses T5, HDAC6 (Homo sapiens, UniProt Q9UBN7).
T5 construct: purchased BPS Bioscience 50006
T5 sequence (Q9UBN7 1-1215): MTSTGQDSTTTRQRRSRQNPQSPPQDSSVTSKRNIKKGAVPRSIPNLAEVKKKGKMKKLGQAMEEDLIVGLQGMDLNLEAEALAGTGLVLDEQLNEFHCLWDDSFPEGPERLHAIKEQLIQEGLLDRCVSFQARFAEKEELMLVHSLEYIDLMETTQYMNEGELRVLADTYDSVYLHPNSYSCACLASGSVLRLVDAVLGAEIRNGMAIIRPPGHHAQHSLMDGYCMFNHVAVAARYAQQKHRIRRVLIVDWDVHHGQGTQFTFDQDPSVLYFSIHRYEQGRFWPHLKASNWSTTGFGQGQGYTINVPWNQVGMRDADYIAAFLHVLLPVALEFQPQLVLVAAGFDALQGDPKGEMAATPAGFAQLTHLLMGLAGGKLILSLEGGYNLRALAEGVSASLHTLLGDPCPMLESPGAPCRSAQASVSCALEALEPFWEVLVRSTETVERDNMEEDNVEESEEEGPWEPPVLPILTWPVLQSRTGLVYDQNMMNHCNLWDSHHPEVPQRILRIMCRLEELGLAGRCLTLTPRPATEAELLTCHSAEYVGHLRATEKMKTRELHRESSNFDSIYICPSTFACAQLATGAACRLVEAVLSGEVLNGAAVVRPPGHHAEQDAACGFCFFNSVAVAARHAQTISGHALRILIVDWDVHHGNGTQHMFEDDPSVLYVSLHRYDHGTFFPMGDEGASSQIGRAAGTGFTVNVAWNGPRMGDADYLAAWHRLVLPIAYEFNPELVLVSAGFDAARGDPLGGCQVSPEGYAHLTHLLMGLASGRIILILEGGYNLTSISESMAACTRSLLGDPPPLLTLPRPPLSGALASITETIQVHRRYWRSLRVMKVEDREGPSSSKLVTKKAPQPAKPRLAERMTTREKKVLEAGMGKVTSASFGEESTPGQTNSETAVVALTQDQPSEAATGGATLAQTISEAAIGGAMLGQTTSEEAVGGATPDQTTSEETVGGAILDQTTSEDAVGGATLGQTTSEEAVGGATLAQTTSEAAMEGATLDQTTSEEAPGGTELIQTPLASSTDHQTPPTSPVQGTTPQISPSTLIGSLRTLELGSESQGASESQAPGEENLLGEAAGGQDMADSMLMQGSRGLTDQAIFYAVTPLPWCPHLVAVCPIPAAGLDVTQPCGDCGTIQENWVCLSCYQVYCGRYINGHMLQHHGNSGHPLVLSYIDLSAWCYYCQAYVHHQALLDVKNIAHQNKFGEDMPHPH
The assay can be described thus: HDAC-Glo I/II assay, HDAC6. Type of assay: biochemical. Conditions: recombinant human HDAC6, HDAC-Glo; read-out: pIC50 HDAC6 Glo (converted).

The target in another assay is T6, TwinStrep-GST-HDAC10 (Homo sapiens, UniProt Q969S8).
T6 construct: made in house; host or cells: Sf21 insect cells (baculovirus, pFastBac1)
T6 sequence (Q969S8 1-669): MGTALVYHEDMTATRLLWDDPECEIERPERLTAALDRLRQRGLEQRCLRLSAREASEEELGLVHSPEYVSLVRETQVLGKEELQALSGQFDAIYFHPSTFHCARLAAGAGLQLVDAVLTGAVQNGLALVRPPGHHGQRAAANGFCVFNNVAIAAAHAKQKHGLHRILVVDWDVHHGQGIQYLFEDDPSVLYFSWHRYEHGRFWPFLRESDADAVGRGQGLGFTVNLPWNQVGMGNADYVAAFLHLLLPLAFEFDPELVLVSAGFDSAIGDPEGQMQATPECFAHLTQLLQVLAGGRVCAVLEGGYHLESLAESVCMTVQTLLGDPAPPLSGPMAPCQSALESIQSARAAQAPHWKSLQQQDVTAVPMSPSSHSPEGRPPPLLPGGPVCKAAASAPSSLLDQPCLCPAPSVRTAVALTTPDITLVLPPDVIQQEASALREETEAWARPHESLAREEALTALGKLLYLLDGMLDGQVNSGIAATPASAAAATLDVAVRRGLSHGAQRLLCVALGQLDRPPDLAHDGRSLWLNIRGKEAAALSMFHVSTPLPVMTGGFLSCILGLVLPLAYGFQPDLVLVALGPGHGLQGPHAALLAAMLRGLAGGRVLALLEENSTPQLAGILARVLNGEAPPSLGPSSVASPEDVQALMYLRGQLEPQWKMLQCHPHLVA
The assay can be described thus: HDAC10 TR-FRET assay (Tubastatin-AF647-Tracer displacement). Type of assay: binding. As to conditions: TR-FRET, 60 min at rt; for IC50: read-out: pIC50 HDAC10 FRET (converted).

Some results are limits rather than exact numbers.

T1 sequence (O15379 whole entry): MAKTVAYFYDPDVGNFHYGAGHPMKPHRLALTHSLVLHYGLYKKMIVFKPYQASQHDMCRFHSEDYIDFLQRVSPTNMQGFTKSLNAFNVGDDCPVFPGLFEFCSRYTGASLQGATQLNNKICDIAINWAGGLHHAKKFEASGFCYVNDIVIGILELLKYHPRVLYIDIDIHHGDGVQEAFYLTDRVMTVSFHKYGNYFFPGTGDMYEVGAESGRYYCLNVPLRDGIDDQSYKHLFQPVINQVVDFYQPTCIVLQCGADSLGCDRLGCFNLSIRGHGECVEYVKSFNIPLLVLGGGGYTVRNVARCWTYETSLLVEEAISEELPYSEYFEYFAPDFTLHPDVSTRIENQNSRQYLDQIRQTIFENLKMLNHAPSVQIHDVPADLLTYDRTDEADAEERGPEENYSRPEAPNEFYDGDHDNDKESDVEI
T1 sequence (Q9Y618 395-489 partner limits assumed): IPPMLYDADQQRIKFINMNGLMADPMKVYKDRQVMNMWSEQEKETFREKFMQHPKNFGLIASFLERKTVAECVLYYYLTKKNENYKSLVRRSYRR
T3 sequence (Q13547 whole entry): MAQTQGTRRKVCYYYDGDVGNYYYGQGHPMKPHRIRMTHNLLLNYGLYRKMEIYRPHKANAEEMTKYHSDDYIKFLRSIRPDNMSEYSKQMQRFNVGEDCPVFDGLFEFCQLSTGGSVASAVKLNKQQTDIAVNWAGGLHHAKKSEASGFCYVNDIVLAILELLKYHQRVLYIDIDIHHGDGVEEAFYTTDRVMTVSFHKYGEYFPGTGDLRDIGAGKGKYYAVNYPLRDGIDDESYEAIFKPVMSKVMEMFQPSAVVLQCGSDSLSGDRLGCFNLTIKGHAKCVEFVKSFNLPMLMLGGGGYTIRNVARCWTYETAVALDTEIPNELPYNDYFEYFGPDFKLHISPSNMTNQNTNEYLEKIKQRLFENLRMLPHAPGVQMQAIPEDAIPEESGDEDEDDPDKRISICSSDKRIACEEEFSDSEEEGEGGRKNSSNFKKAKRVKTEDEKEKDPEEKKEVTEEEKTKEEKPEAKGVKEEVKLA
T4 sequence (Q92769 whole entry): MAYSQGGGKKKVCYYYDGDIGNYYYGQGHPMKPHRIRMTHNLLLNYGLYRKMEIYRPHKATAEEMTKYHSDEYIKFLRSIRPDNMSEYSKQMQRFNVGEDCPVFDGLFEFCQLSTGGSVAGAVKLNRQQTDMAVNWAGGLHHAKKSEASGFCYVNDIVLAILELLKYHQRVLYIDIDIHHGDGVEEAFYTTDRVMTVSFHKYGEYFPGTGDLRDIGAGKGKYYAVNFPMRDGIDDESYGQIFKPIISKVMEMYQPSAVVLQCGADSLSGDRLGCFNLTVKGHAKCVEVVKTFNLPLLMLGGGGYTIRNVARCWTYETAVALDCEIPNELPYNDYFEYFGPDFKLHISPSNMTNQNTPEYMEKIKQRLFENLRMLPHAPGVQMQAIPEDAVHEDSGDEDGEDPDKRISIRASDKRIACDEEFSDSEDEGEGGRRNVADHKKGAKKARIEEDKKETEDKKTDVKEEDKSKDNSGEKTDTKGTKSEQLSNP

As to `CN(CCCC(=O)NO)CCC(=O)Nc1ccccc1` [DKFZ-711], the IC50 at HDAC3/NcoR2 complex is 79.4 µM; at HDAC8, 3.98 µM.

`CCN(CCCC(=O)NO)CCC(=O)Nc1ccccc1` [DKFZ-714, 4-(Ethyl(3-oxo-3-(phenylamino)propyl)amino)-N-hydroxybutanamide]: the IC50 was 50.1 µM on HDAC1; greater than 200 µM at HDAC2; roughly 158 µM at HDAC3/NcoR2 complex; 6.31 µM on HDAC6; 5.01 µM at HDAC8.

Consider `CN(CCCC(=O)NO)CCNC(=O)c1ccccc1` [DKFZ-728, N-(2-((4-(Hydroxyamino)-4-oxobutyl)(methyl)amino)ethyl)benzamide], for which the figures for the IC50 on HDAC2, at HDAC3/NcoR2 complex and on HDAC8 were 50.1 µM, greater than 100 µM and 15.8 µM, respectively.

Turning to `CN(CCCC(=O)NO)CCNC(=O)c1ccc(-c2ccccc2)cc1` [DKFZ-746, N-(2-((4-(Hydroxyamino)-4-oxobutyl)(methyl)amino)ethyl)-[1,1′-biphenyl]-4-carboxamide], the IC50 at HDAC1 was 2.51 µM; on HDAC2, roughly 39.8 µM; on HDAC3/NcoR2 complex, roughly 31.6 µM; on HDAC6, 3.16 µM; at TwinStrep-GST-HDAC10 it was 0.0251 µM; at HDAC8, 5.01 µM.

Take `CN(CCCC(=O)NO)CCNC(=O)c1cccc(N)c1` [DKFZ-747, 3-Amino-N-(2-((4-(hydroxyamino)-4-oxobutyl)(methyl)amino)ethyl)benzamide]: the IC50 on HDAC1 was 25.1 µM; at HDAC2, greater than 100 µM; at HDAC3/NcoR2 complex, greater than 100 µM; on HDAC6, 6.31 µM; at TwinStrep-GST-HDAC10 it was 0.0398 µM; at HDAC8, 12.6 µM.

On to `Cc1[nH]c2ccccc2c1CC(=O)NCCN(C)CCCC(=O)NO` [DKFZ-749, N-Hydroxy-4-(methyl(2-(2-(2-methyl-1H-indol-3-yl)acetamido)ethyl)amino)butanamide], for which the IC50 on HDAC1 was 10 µM; at HDAC2 it was greater than 100 µM; on HDAC3/NcoR2 complex, greater than 100 µM; on HDAC6, 3.16 µM; at TwinStrep-GST-HDAC10, 0.0794 µM; at HDAC8 it was 2.51 µM.

Regarding `CN(CCCC(=O)NO)CCNC(=O)c1ccc(O)cc1` [DKFZ-751, 4-Hydroxy-N-(2-((4-(hydroxyamino)-4-oxobutyl)(methyl)amino)ethyl)benzamide], the IC50 is 15.8 µM at HDAC1; greater than 100 µM at HDAC2; greater than 100 µM on HDAC3/NcoR2 complex; 2 µM on HDAC6; 0.00794 µM at TwinStrep-GST-HDAC10; 25.1 µM at HDAC8.

Regarding `CN(CCCC(=O)NO)CCNC(=O)c1ccc(N)cc1` [DKFZ-752, 4-Amino-N-(2-((4-(hydroxyamino)-4-oxobutyl)(methyl)amino)ethyl)benzamide], the IC50 was 15.8 µM at HDAC1; greater than 100 µM on HDAC2; greater than 100 µM on HDAC3/NcoR2 complex; 3.98 µM at HDAC6; 0.0158 µM on TwinStrep-GST-HDAC10; 20 µM on HDAC8.

Consider `CN(CCCC(=O)NO)CCNC(=O)c1ccccc1Br` [DKFZ-753, 2-Bromo-N-(2-((4-(hydroxyamino)-4-oxobutyl)(methyl)amino)ethyl)benzamide], for which the IC50 on HDAC1 is 25.1 µM; at HDAC2, greater than 100 µM; at HDAC3/NcoR2 complex, greater than 100 µM; at HDAC6 it was 6.31 µM; on TwinStrep-GST-HDAC10, 0.0158 µM; at HDAC8, 7.94 µM.

As for `CN(CCCC(=O)NO)CCNC(=O)c1ccc2cn[nH]c2c1` [DKFZ-754, N-(2-((4-(Hydroxyamino)-4-oxobutyl)(methyl)amino)ethyl)-1H-indazole-6-carboxamide], the IC50 on HDAC1 was 7.94 µM; on HDAC2 it was greater than 100 µM; on HDAC3/NcoR2 complex, greater than 100 µM; at HDAC6, 3.16 µM; at TwinStrep-GST-HDAC10 it was 0.00794 µM; on HDAC8, 12.6 µM.

`CN(CCCC(=O)NO)CCNC(=O)c1ccccc1O` [DKFZ-755, 2-Hydroxy-N-(2-((4-(hydroxyamino)-4-oxobutyl)(methyl)amino)ethyl)benzamide]: the IC50 at HDAC1 is 63.1 µM; on HDAC2, greater than 100 µM; on HDAC3/NcoR2 complex it was greater than 100 µM; on HDAC6, 12.6 µM; on TwinStrep-GST-HDAC10, 0.0316 µM; on HDAC8, 63.1 µM.

As for `Cc1[nH]c2ccccc2c1C(=O)NCCN(C)CCCC(=O)NO` [DKFZ-756, N-(2-((4-(Hydroxyamino)-4-oxobutyl)(methyl)amino)ethyl)-2-methyl-1H-indole-3-carboxamide], the IC50 at HDAC1 is 7.94 µM; at HDAC2, greater than 100 µM; at HDAC3/NcoR2 complex, roughly 79.4 µM; on HDAC6, 1.58 µM; at TwinStrep-GST-HDAC10, 0.02 µM; on HDAC8 it was 5.01 µM.

Regarding `CN(CCCC(=O)NO)CC(=O)Nc1ccccc1` [DKFZ-772, N-Hydroxy-4-(methyl(2-oxo-2-(phenylamino)ethyl)amino)butanamide], the IC50 was 20 µM at HDAC1, 31.6 µM on HDAC2, greater than 100 µM on HDAC3/NcoR2 complex and 2.51 µM at HDAC8.

As for “(1r,3r)-N-Hydroxy-3-((3-oxo-3-(phenylamino)propyl)amino)cyclobutanecarboxamide [DKFZ-759]”, on HDAC1, the “pIC50 HDAC1 Glo” value worked out at 4.4. Further, on HDAC2, the “pIC50 HDAC2 Glo” value is less than 4.0. Also, the “pIC50 HDAC3 Glo” value at HDAC3/NcoR2 complex was less than 4.0. Moreover, the “pIC50 HDAC10 FRET” value at TwinStrep-GST-HDAC10 is 6.3. Moreover, at HDAC8, the “pIC50 HDAC8 Glo” value is 4.9.

Take “(1s,3s)-N-Hydroxy-3-((3-oxo-3-(phenylamino)propyl)amino)cyclobutanecarboxamide [DKFZ-767]”: the “pIC50 HDAC1 Glo” value on HDAC1 worked out at 4.9. Moreover, the “pIC50 HDAC2 Glo” value on HDAC2 turned out to be 4.6. Further, the “pIC50 HDAC3 Glo” value on HDAC3/NcoR2 complex was roughly 4.0. For the same molecule, the “pIC50 HDAC10 FRET” value at TwinStrep-GST-HDAC10 came out at 6.9. At HDAC8, the “pIC50 HDAC8 Glo” value was 5.1.
